According to US20050107338A1, “Nutritional supplement enhancing mitochondrial function” (priority 2003, published 2005):

Experiments:
COX and SDH = COX and SDH levels in mitochondria of dosed rats; format: in vivo; settings: daily dosing per Table 2, after one month, COX and SDH averaged, vs control group 7
From the text: A group of 154 rats are evenly divided between a control group and six study groups, resulting in 22 animals per group.
The change from baseline relative to the last study month in the levels of COX and SDH is compared among the seven study groups using one-way analysis of variance (ANOVA). The Dunnett t-test procedure is used to compare the control group to each of the six treatment groups. As a secondary analysis to evaluate for trends across time, repeated measures of ANOVA are to be used to compare the groups regarding the change in the COX and SDH levels over the three-month time intervals. […]
The assay for SDH measures the reduction of 2,6-dichlorophenolindophenol (DCPIP) when coupled to […] reduction of decylubiquinone (DB), monitoring the absorbance at 600 minus […] (extinction coefficient 19.1 mM^−1cm^−1) (Singer T P, 1976). The reduction of DCPIP is measured at 600 minus 520 nm in a 1 ml cuvette at 30° C. […] Antimycin A (2 μg/ml), rotenone (2 μg/ml), KCN (2 mM), and 50 μM DCPIP are added to the sample and the blank rate is recorded for 1 minute. The reaction is initiated by the addition of 50 uM DB and change in absorbance is monitored for 3 minutes.
The activity of cytochrome-c oxidase (COX) is measured by following the oxidation of reduced cytochrome c at 550 minus 540 nm (extinction coefficient 19.0 mM^−1 cm^−1) (Errede B, et al. 1996). […]

[1] = Age-related hearing loss in subjects treated separately with the compounds; format: in vivo; settings: subjects treated separately with each compound
complex III = biological target: T1, complex III (Rattus norvegicus, UniProt P00159); settings: by competition with coenzyme Q; cited from earlier work
T1 construct: decrease complex III activity in rat brain; host or cells: rat brain (mitochondria)

[2] = tested on: mitochondrial transcripts; settings: pretreatment of senescent rats; time and dose-dependent; cited from earlier work

Structure (SMILES) | increase in COX and SDH relative to the control group (COX and SDH) | age-related hearing loss [1] | complex III activity in rat brain (complex III) | levels of mitochondrial transcripts [2]
O=C(O)CCCCC1CCSS1 (stereo not shown) [Study group 1, lipoic acid] | 10% | improvement | – | –
CC(=O)N[C@@H](CS)C(=O)O [Study group 2, N-acetyl cysteine, reference compound] | 15% | – | – | –
Oc1ccc(C=Cc2cc(O)cc(O)c2)cc1 [Study group 3, resveratrol] | – | improvement | decrease | –
CC(=O)O[C@H](CC(=O)[O-])C[N+](C)(C)C [acetyl-L-carnitine] | – | improvement | – | bring back the levels of mitochondrial transcripts to adult levels
